Experimental data: US10118922B2 (Janssen Pharmaceutica NV, priority 2013, dated 2018)

Tests used:
[1] = target: T1, long form of human GPR120 (Homo sapiens, UniProt Q5NUL3); assay: Human GPR120 DiscoveRx PathHunter beta-arrestin assay, Procedure β-arrestin A; format: cell-based; settings: PathHunter CHO-K1 GPR120 β-Arrestin cells, 3000 cells per well; read-out: hGPR120 β-arrestin A EC50
T1 construct: host or cells: PathHunter CHO-K1 GPR120 β-Arrestin Cell Line
T1 sequence (Q5NUL3 1-377 isoform Q5NUL3-1): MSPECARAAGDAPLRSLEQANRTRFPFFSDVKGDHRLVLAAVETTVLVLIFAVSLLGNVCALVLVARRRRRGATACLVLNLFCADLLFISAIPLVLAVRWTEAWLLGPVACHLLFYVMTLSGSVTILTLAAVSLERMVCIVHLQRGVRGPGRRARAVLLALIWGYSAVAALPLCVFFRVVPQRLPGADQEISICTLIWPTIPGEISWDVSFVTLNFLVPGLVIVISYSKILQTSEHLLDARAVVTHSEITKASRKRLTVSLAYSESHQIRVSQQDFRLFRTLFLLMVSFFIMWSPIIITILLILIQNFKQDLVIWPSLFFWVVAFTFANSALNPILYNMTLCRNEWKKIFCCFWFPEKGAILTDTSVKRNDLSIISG
Excerpt: The binding of an agonist (medium/long chain fatty acids or small molecule agonists) to the G-protein-coupled receptor GPR120 activates phospholipase C, leading to release of intracellular Ca^+2 through the generation of inositol 1,4,5-trisphosphate (InsP3 or IP3). GPR120 activation can also trigger intracellular signaling via recruitment of Beta-Arrestin. In the present method, agonist-induced activation of the human GPR120 receptor is monitored through the use of PathHunter CHO-K1 GPR120 Beta-Arrestin Cell Line engineered by DiscoveRx, as detailed below. The cell lines are designed to co-express both the ProLink/Enzyme Donor (PK)-tagged GPCR and the Enzyme […] (EA)-tagged Beta-Arrestin fusion proteins. Upon GPR120 receptor stimulation/activation, the EA-tagged Beta-Arrestin portion is translocated to the tagged receptor, where the two enzyme fragments are brought within close proximity. Under these conditions, these fragments can interact and form an active Beta-gal enzyme complex through Enzyme Fragment Complementation (EFC). […] This in vitro assay therefore serves to assess compound agonist activity of the GPR120.
In Procedure β-arrestin A, the cell used were PathHunter CHO-K1 GPR120 β-Arrestin Cell Line, expressing the long form of human GPR120 (Genbank accession number NM_181745), with 3000 cells per well.
The selected CHO-K1 GPR120 β-Arrestin cells were cultured in Ham's F12 media supplemented with 10% fetal bovine serum (FBS), 1% Glutamine, 1×p/s, 800 μg/mL G418 and 300 μg/mL Hygromycin B (for selection). Cell stocks were maintained and grown in a sub-confluent state using standard cell culture procedures. The day before the experiment, the cells were harvested with non-enzymatic cell dissociation buffer and re-suspended in complete growth media at the desired concentration. […] The seeded plates were incubated overnight at 37° C.
On the day of the experiment, the Assay Buffer containing (a) HBSS with Ca^++ and Mg^++, (b) 20 mM HEPES, and (c) 0.1% BSA stabilizer (pH 7.4) was prepared. The growth medium was gently removed from the cell plates and 20 μL of Assay Buffer added to each well. The plate was then incubated at 37° C. for 60 min. […] Five μL of compound dilution was then added to each well and the plate incubated at 37° C. for 90 min. The detection reagents were prepared according to the manufacture's instruction. Twelve μL of the detection reagents were added to each well and the plate incubated at room temperature for 60 min.
The % activity relative to the positive control was calculated using the following equation:
The Fitting Equation was: Y=Bottom+(Top-Bottom)/(1+10^((Log EC50−X)*HillSlope)), where X is the log of the concentration and Y is the response.

Human GPR120 short form = target: T2, Human GPR120 short form (Homo sapiens, UniProt Q5NUL3); assay: Human GPR120 calcium flux assay, Procedure Calcium A; format: cell-based; settings: HEK-293 cells, FLIPR, 2500 cells/well; read-out: GPR120 Ca2+ Assay A EC50
T2 construct: expressed in transfected cells
T2 sequence (Q5NUL3 1-361): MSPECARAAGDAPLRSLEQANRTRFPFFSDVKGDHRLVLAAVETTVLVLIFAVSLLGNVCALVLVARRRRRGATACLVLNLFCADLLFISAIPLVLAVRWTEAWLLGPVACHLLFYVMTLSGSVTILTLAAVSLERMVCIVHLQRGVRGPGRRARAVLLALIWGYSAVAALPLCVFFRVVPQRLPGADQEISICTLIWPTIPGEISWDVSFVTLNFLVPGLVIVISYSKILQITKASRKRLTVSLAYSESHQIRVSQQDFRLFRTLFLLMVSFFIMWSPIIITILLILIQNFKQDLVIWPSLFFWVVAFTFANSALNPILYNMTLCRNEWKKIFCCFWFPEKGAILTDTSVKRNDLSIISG
Experimental: These cells are first loaded with the Ca^+2 sensitive dye, Fluo-4 NR. Upon stimulation, intracellular released Ca^+2 can bind to the dye and alter its fluorescence intensity. This increase in fluorescence signal, and thus the flux in intracellular [Ca^2+], is detected and quantitated by fluorescence imaging using a FLIPR reader. The effect of the agonist is measured as a function of concentration and used to calculate an EC50 based upon a response curve.
In this procedure 2500 cells/well were employed.
A Human GPR120 clone (Genbank accession number NM_001195755.1) was placed into the pcDNA3.1 mammalian expression vector carrying the neomycin resistance gene. A stable mammalian cell was generated by placing the above clone into a HEK293 background. […] Cells were split 2 times a week to keep the cells in the log-phase growth.
In preparation for the assay, HEK cells stably transfected with Human GPR120 (2.5K cells per well in 25 uL growth medium) were seeded into 384-well plates and then incubated overnight (37° C., 5% CO2). The next day, the media was changed to 20 μL assay buffer and the cell starved for 1 h at 37° C. The dye loading solution (2× dye) was prepared using 10 mL assay buffer, 100 μL of 250 mM probenecid, 1 bottle of Component A, and 20 μl of dye in DMSO. Twenty μL of the 2× dye loading buffer was then added to each well. The plates were incubated at 37° C. for 30 min, then at room temperature for an additional 15 minutes, before performing the assay on FLIPR.
The assay was performed on a FLIPR plate reader using the following parameters. Baseline was read for 10 seconds at 1 sec intervals. The program was set to transfer 10 μL of ligand from compound plate to cell plate after baseline reading. Aspiration was executed at: 10 μL/sec speed, 4.6 μL height; Dispensing was executed at: 30 μL/sec speed, 45 μL height. After compound addition, each well was read for 300 sec, with measurements collected at 1 sec intervals.
The kinetic data from the FLIPR was based upon a 5 minute window for data collection. The fluorescence of each sample well was used for individual calculations of a normalized RFU value, which was defined as maximum response minus the minimum response. […] The Fitting Equation was: Y=Bottom+(Top-Bottom)/(1+10^((Log EC50−X)*HillSlope)), where X is the log of the concentration and Y is the response.

Row | Structure (SMILES) | EC50 [1] [nM] | EC50 (Human GPR120 short form) [nM]
1 | O=C(O)CCc1cc(F)c(OCc2sc(Cl)cc2-c2ccc(Cl)cc2)c(F)c1 [Cpd 2, 3-(4-{[5-Chloro-3-(4-chlorophenyl)thiophen-2-yl]methoxy}-3,5-difluorophenyl)propanoic acid] | 97 | 30
2 | Cc1sc(-c2ccccc2)c(COc2ccc(CCC(=O)O)c(C)c2C)c1C(F)(F)F [Cpd 33, 3-(2,3-Dimethyl-4-{[5-methyl-2-phenyl-4-(trifluoromethyl)thiophen-3-yl]methoxy}phenyl)propanoic acid] | 431 | 50
3 | OCCCc1cc(F)c(OCc2c(Cl)nsc2-c2ccc(Cl)cc2)c(F)c1 [Cpd 78, 3-(4-{[3-Chloro-5-(4-chlorophenyl)isothiazol-4-yl]methoxy}-3,5-difluorophenyl)propan-1-ol] | 28 | 50
